{"source": "patent US6361805B1", "about": "“Method of preparation and composition of a water soluble extract of the plant species uncaria for enhancing immune, anti-inflammatory, anti-tumor and DNA repair processes of warm blooded animals” (priority 1997, dated 2002)", "system": "HL-60 cells", "assay": "Induction of apoptosis, scored by phase contrast morphological criteria", "type": "cell-based, human", "conditions": "HL-60, 100 μM hydrogen peroxide positive control, 0-72 hours", "description": "FIG. 2. Time course of apoptosis in HL-60 cells induced by C-MED-100 extract (Example 1) as compared to negative (no treatment) or positive (100 μM H2O2 exposure) controls.\nFor the purpose of evaluating apoptosis in vitro, human leukemic HL-60 cells were cultured at a density of 0.5×10^6 cells per milliliter in 10% calf serum supplemented RPMI medium in a 5% CO2 atmosphere at 37° C. for 48 hours. The cells were harvested by centrifugation and resuspended in a fresh medium at a concentration of 1-2×10^6 cells per milliliter in 15 milliliter Falcon test tubes for bioassay purposes. Next the cells were exposed to either 100 μM hydrogen peroxide as a positive control or 397 μg per milliliter C-Med-100 extract prepared according to Example 1 or no exposure for 0-72 hours at 37° C. Samples of cells were taken from the cultures at the time periods indicated in FIG. 2 and the % apoptosis in the total cells counted were analyzed and scored by phase contrast morphological criteria."}
{"compound": "OO", "note": "[Hydrogen peroxide]", "values": [{"measurement": "apoptotic cells over time", "result": "massive cell death by apoptosis within 24 hours"}]}
